{"source": "patent US20160095837A1", "about": "“MODULATION OF MITOCHONDRIAL CALCIUM UNIPORTER ACTIVITY FOR TREATING AND PREVENTING ARRHYTHMIAS” (priority 2014, published 2016)", "key": {"[1]": {"system": "sinoatrial nodal (SAN) pacemaker cells", "assay": "Spontaneous action potential rate of single SAN cells (perforated patch clamp)", "format": "cell-based, mouse", "procedure": "(§1) SAN cells were placed in Tyrode's solution at 36±0.5° C. and were identified by their characteristic morphology (spindle or spider shape) and spontaneous activity. SAN cells were identified electrophysiologically by spontaneous action potentials with a slow depolarizing phase 4 and the hyperpolarization-activated current (If).^27 Spontaneous action potentials, If and ICa were recorded using the perforated (amphotericin B or β-escin in studies requiring dialysis of Ru360 and/or ATP) patch-clamp technique^28 on single SAN cells at 36±0.5° C. in Tyrode's solution. Intracellular Ca^2+ transients were recorded from single SAN cells using Fura-2 AM excited at 340 nm and 380 nm and emitted and 510 nm. Endogenous NADH from single SAN cells was measured by excitation at 350 nm and recording emitted light at 460 nm.^29 Mitochondrial Ca^2+ was measured at 535 nm from mt-pericam expressing SAN cells exited at 415 nm^20. Mitochondrial Ca^2+ entry was measured in cell membrane permeabilized cardiomyocytes isolated from DN-MCU transgenic, wild type mice and from HEK293 cells using Calcium green-5N^30.\nIsolation of single SAN cells from mice was performed according to previously published methods^22, 27, 31 with minor modifications. Mice were administered an intraperitoneal injection of avertin (20 μl/g) and monitored until unresponsive. The heart was excised and placed into Tyrode's solution (35° C.), consisting of (mM) 140 NaCl, 5.0 HEPES, 5.5 Glucose, 5.4 KCl, 1.8 CaCl2, and 1.0 MgCl2. The pH was adjusted to 7.4 with NaOH. […] The SAN was cut into smaller pieces, which were transferred and rinsed in a solution containing (mM) 140 NaCl, 5.0 HEPES, 5.5 Glucose, 5.4 KCl, 0.2 CaCl2, 0.5 MgCl2, 1.2 KH2PO4, 50 Taurine and 1 mg/ml bovine serum albumin (BSA), with pH adjusted to 7.4 using NaOH. SAN tissue pieces were digested in 5 ml of solution containing collagenase type I, elastase (Worthington), and protease type XIV (Sigma) for 20-30 min. The tissue was transferred to 10 ml of Kraft-Bruhe (KB) medium containing (mM) 100 potassium glutamate, 5.0 HEPES, 20 Glucose, 25 KCl, 10 potassium aspartate, 2.0 MgSO4, 10 KH2PO4, 20 taurine, 5 creatine, 0.5 EGTA, and 1 mg/ml BSA, with pH adjusted to 7.2 using KOH. The tissue was agitated using a glass pipette for 10 min. The cells were stored at 4° C. and studied within 7 hours.\nSAN cells were placed in Tyrode's solution at 36±0.5° C. SAN cells were identified by their characteristic morphology (spindle or spider shape) and spontaneous activity in all single cell experiments. SAN cells were also identified electrophysiologically by typical spontaneous action potentials with slow depolarizing phase 4 and the hyperpolarization-activated current (If) in electrophysiological experiments.\nSpontaneous action potentials (APs) and If were recorded using the perforated (amphotericin B or β-escin) patch-clamp technique^28 on single SAN cell at 36±0.5° C. in Tyrode's solution (0.5 mM BaCl2 was added to the bath solution when recording If^32). The pipette was filled with (mM) 130 potassium aspartate, 10 NaCl, 10 HEPES, 0.04 CaCl2, amphotericin B 240 μg/ml with pH adjusted to 7.2 with KOH. SAN cells with stable APs lasting at least 5 min were included in the experiments. β-escin 25 μM was substituted for amphotericin B to allow dialysis of Ru360 or ATP. When recording If, membrane potential was held at −35 mV, the voltage steps were applied for 5 s ranging from −125 mV to −45 mV in 10 mV increments or vice versa.^33 ICa was measured using the perforated patch technique at […] as previously described.^22 ICa was confirmed by its sensitivity to Nifedipine 5 μM. Depolarizing voltage pulses (300 ms in duration) to various potentials (−60 mV to 60 mV in 10 mV step) were applied after 50 ms at −40 mV to inactivate INa from a holding potential of −70 mV. […]"}, "HCN4 inward current (If)": {"system": "HCN4 inward current (If)", "assay": "If current recording in SAN cells", "format": "cell-based, mouse", "conditions": "Ru360 dialysis", "procedure": "as §1\n(§2) Spontaneous action potentials (APs) and If were recorded using the perforated (amphotericin B or β-escin) patch-clamp technique^28 on single SAN cell at 36±0.5° C. in Tyrode's solution (0.5 mM BaCl2 was added to the bath solution when recording If^32). […]"}, "[2]": {"system": "CaV1 L-type Ca2+ current (ICa)", "assay": "ICa current recording in SAN cells", "format": "cell-based, mouse", "conditions": "Ru360 dialysis", "procedure": "as §1, §2"}, "mitochondria": {"molecular_target": "mitochondria", "conditions": "read-out: Kd, binding to mitochondria; cited from earlier work"}, "[3]": {"system": "Ca2+ uptake into mitochondria", "conditions": "in vitro; read-out: IC50, block of Ca2+ uptake into mitochondria in vitro; cited from earlier work"}, "[4]": {"system": "other cellular Ca2+ transport processes involved in cardiac muscle contraction", "conditions": "even at micromolar levels; cited from earlier work"}}}
{"substance": "(μ)[(HCO2)(NH3)4Ru]2OCl3) [Ru360]", "values": [{"measurement": "Basal SAN cell rates", "setting": "[1]; dialysis, no ISO", "result": "neither Ru360 nor ATP had any affect"}, {"measurement": "SAN cell action potential frequency increases to ISO", "setting": "[1]; freshly isolated SAN cells dialyzed with Ru360 5 μM, vs cells without Ru360", "result": "significantly reduced"}, {"measurement": "If responses to ISO", "setting": "HCN4 inward current (If)", "result": "not reduced"}, {"measurement": "ISO-induced ICa increases", "setting": "[2]", "result": "not impaired"}, {"measurement": "Kd", "setting": "mitochondria", "result": 0.34, "unit": "nM"}, {"measurement": "IC50", "setting": "[3]", "result": 0.184, "unit": "nM"}, {"measurement": "Effect on other cellular Ca2+ transport processes involved in cardiac muscle contraction", "setting": "[4]", "result": "does not affect"}]}
